Several values for one entry are separate records, joined by “and”; a condition that tells them apart may be missing. Identical values can stand only once. Like-named read-outs stand apart in the source and are kept apart here.
Legend:
[1] = PAMPA; for Pm^7.4: pH 7.4
[2] = Charge class Q, dominant calculated charge state at pH 7.4; assay type: physicochemical
[3] = In combo PAMPA-BBB model, calculated log Po in situ
[4] = PAMPA; for Pm^7.4: pH 7.4; remark: listed apart in the source
[5] = dominant calculated concentration fraction of the drug in a charge state
[6] = difference observed minus calculated, external set, no efflux inhibition

| Compound | log PABL [1] | log Po [1] | log Ppara [1] | Pm^7.4 [1] | Q (charge class) [2, 5] | other results |
| --- | --- | --- | --- | --- | --- | --- |
| NNCCc1ccccc1 [Phenelzine] | −4.58 | −2.20 | −6.86 | 2236 | + | pKa (physchem): 7.66; obs–calc (log Po^in situ) [3, 6]: −1.9 |
| CC(NC(C)(C)C)C(=O)c1cccc(Cl)c1 (stereo not shown) [Bupropion] |  |  |  | 101 | + | obs–calc (log Po^in situ) ([3]; no efflux inhibition): 0.9 |
| [D-Pen^2,5]-Enkephalin [DPDPE] |  |  |  |  |  | Q (charge class) [2]: ± |
| C[C@]12CCC(=O)C=C1CC[C@@H]1[C@@H]2[C@@H](O)C[C@@]2(C)[C@H]1CC[C@]2(O)C(=O)CO [Hydrocortisone] |  |  |  |  | 0 |  |
| CN(C)CCCN1c2ccccc2Sc2ccc(Cl)cc21 [Chlorpromazine] | −3.10 | −1.46 | −5.96 | 496 | + | obs–calc (log Po^in situ) ([3]; efflux inhibition mdr1a(−/−)): 0.2; obs–calc (log Po^in situ) ([3]; no efflux inhibition): 0.0 and 0.2 |
| CNCCCC12CCC(c3ccccc31)c1ccccc12 [Maprotiline] | −3.21 | −0.56 | −5.51 | 311 | + | obs–calc (log Po^in situ) ([3]; no efflux inhibition): 0.2 |
| O=C(O)COCCN1CCN(C(c2ccccc2)c2ccc(Cl)cc2)CC1 (stereo not shown) [Cetirizine] |  |  |  |  | ± |  |
| Cc1cc(=O)n(-c2ccccc2)n1C [Antipyrine] | −4.46 | −6.14 | −6.86 |  |  | Q (charge class) [2]: 0 |
| O=C1NC(=O)C(c2ccccc2)(c2ccccc2)N1 [Phenytoin] | −4.51 | −4.34 | −6.93 | 41 | 0 | obs–calc (log Po^in situ) ([3]; efflux inhibition mdr1a(−/−)): −0.3; obs–calc (log Po^in situ) ([3]; no efflux inhibition): −0.4 and −0.3 and −0.2 |
| C=C[C@H]1C[N@@]2CC[C@H]1C[C@H]2[C@H](O)c1ccnc2ccc(OC)cc12 [Quinine] |  |  |  |  | + |  |
| CC(=O)[C@H]1CC[C@H]2[C@@H]3CCC4=CC(=O)CC[C@]4(C)[C@H]3CC[C@]12C [Progesterone] | −3.25 | −3.58 | −6.20 | 263 | 0 | obs–calc (log Po^in situ) [3, 6]: −0.6 |
| CCCCNC(=O)NS(=O)(=O)c1ccc(C)cc1 [Tolbutamide] |  |  |  |  | − |  |
| CN1CCN(C2=Nc3ccccc3Oc3ccc(Cl)cc32)CC1 [Loxapine] |  |  |  | 829 |  | pKa (physchem): 7.78 |
| COc1ccc2c3c1O[C@H]1C(=O)CC[C@@]4(O)[C@@H](C2)N(C)CC[C@]314 [Oxycodone] |  |  |  |  |  | pKa (physchem): 9; Q (charge class) [2]: + |
| C[C@]12C[C@H](O)[C@H]3[C@@H](CCC4=CC(=O)CC[C@@]43C)[C@@H]1CC[C@@H]2C(=O)CO [Corticosterone] |  |  |  |  | 0 |  |
| C[C@H]1O[C@@H](O[C@H]2[C@@H](O)C[C@H](O[C@H]3[C@@H](O)C[C@H](O[C@H]4CC[C@@]5(C)[C@H](CC[C@@H]6[C@@H]5C[C@@H](O)[C@]5(C)[C@@H](C7=CC(=O)OC7)CC[C@]65O)C4)O[C@@H]3C)O[C@@H]2C)C[C@H](O)[C@@H]1O [Digoxin] |  |  |  |  |  | Q (charge class) [2]: 0 |
| COc1ccc2cc([C@H](C)C(=O)O)ccc2c1 [Naproxen] |  |  |  |  | − |  |
| CC(C)NCC(O)COc1cccc2ccccc12 (stereo not shown) [Propranolol] |  |  |  | 87 | + |  |
| CC(C)(C(=O)O)c1ccc(C(O)CCCN2CCC(C(O)(c3ccccc3)c3ccccc3)CC2)cc1 (stereo not shown) [Fexofenadine] |  |  |  |  | ± |  |
| COc1ccc2c(c1)c(CC(=O)O)c(C)n2C(=O)c1ccc(Cl)cc1 [Indomethacin] | −2.67 | −2.67 | −5.68 | 3 | − |  |
| COc1cc2c(c(OC)c1OC)-c1ccc(OC)c(=O)cc1[C@@H](NC(C)=O)CC2 [Colchicine] |  |  |  |  |  | Q (charge class) [2]: 0 |
| CC[C@H](C)C(=O)O[C@H]1C[C@@H](C)C=C2C=C[C@H](C)[C@H](CC[C@@H](O)C[C@@H](O)CC(=O)O)[C@H]21 [Lovastatin Acid] |  |  |  |  | − |  |
| CN1CCN2c3ncccc3Cc3ccccc3C2C1 (stereo not shown) [Mirtazapine] | −3.37 | −2.61 | −5.87 | 579 | 0 | pKa (physchem): 7.91; obs–calc (log Po^in situ) ([3]; no efflux inhibition): −0.2 |
| CC(C)Cc1ccc(C(C)C(=O)O)cc1 (stereo not shown) [Ibuprofen] |  |  |  |  | − |  |
| CNCC[C@@H](Oc1ccccc1C)c1ccccc1 [Atomoxetine] | −3.01 | −1.83 | −6.10 |  | + | pKa (physchem): 9.67; obs–calc (log Po^in situ) ([3]; no efflux inhibition): 0.5 |
| CN(C)CCOC(c1ccccc1)c1ccccc1 [Diphenhydramine] |  |  |  |  | + |  |

| Compound | log PABL [1] | log Po [1] | log Ppara [1] | Pm^7.4 [1] | Q (charge class) [2, 5] | other results |
| --- | --- | --- | --- | --- | --- | --- |
| OCCN1CCN(CCCN2c3ccccc3Sc3ccc(Cl)cc32)CC1 [Perphenazine] | −3.42 | −1.66 | −5.64 | 1612 | + | obs–calc (log Po^in situ) [3, 6]: −0.9 |
| CCN(CC)CCNC(=O)c1cc(Cl)c(N)cc1OC [Metoclopramide] |  |  |  | 380 | + |  |
| Nc1nnc(-c2cccc(Cl)c2Cl)c(N)n1 [Lamotrigine] |  |  |  |  |  | pKa (physchem): 5.38 |
| CN1CCN(C2=Nc3cc(Cl)ccc3Nc3ccccc32)CC1 [Clozapine] | −3.37 | −2.58 | −5.74 | 632 | + | obs–calc (log Po^in situ) ([3]; efflux inhibition mdr1a(−/−)): −0.5 |
| O=C(CCCN1CCC(O)(c2ccc(Cl)cc2)CC1)c1ccc(F)cc1 [Haloperidol] | −3.38 | −2.06 | −4.68 | 464 | + | obs–calc (log Po^in situ) ([3]; no efflux inhibition): −0.3 |
| COc1cc([C@@H]2c3cc4c(cc3[C@@H](O[C@@H]3O[C@@H]5CO[C@@H](C)O[C@H]5[C@H](O)[C@H]3O)[C@H]3COC(=O)[C@H]23)OCO4)cc(OC)c1O [Etoposide] | −4.62 | −6.17 | −6.85 | 0.6 | 0 | obs–calc (log Po^in situ) ([3]; efflux inhibition mdr1a(−/−)): 0.1; obs–calc (log Po^in situ) ([3]; no efflux inhibition): −0.1 |
| CN1C(=O)CN=C(c2ccccc2)c2cc(Cl)ccc21 [Diazepam] |  |  |  |  |  | Q (charge class) [2]: 0 |
| Cn1c(=O)c2[nH]cnc2n(C)c1=O [Theophylline] |  |  |  |  |  | Q (charge class) [2]: 0 |
| Clc1ccc2c(c1)C(N1CCNCC1)=Nc1ccccc1O2 [Amoxapine] | −3.26 | −2.37 | −5.98 | 289 | + | obs–calc (log Po^in situ) ([3]; no efflux inhibition): −0.4 |
| C[C@]12CC[C@H]3[C@@H](CCC4=CC(=O)CC[C@@]43C)[C@@H]1CC[C@@H]2O [Testosterone] |  |  |  |  |  | Q (charge class) [2]: 0 |
| NC(=O)N1c2ccccc2C=Cc2ccccc21 [Carbamazepine] | −3.25 |  | −6.09 | 29 | 0 | obs–calc (log Po^in situ) ([3]; efflux inhibition mdr1a(−/−)): 0.6 |
| Cc1nc2n(c(=O)c1CCN1CCC(c3noc4cc(F)ccc34)CC1)CCCC2 [Risperidone] |  |  |  |  |  | Q (charge class) [2]: +; obs–calc (log Po^in situ) [3]: 0.8 |
| COc1ccc([C@@H]2Sc3ccccc3N(CCN(C)C)C(=O)[C@@H]2OC(C)=O)cc1 [Diltiazem] |  |  |  |  | + |  |
| CCCN1C[C@H](CSC)C[C@@H]2c3cccc4[nH]cc(c34)C[C@H]21 [Pergolide] | −3.25 | −1.45 | −6.20 | 315 | + | pKa (physchem): 9.45; obs–calc (log Po^in situ) ([3]; no efflux inhibition): 0.4 |
| CCN(CC)CC(=O)Nc1c(C)cccc1C [Lidocaine] |  |  |  |  | + |  |
| OCCN1CCN(CCCN2c3ccccc3Sc3ccc(C(F)(F)F)cc32)CC1 [Fluphenazine] | −3.24 | −2.36 | −5.54 | 1326 | + | pKa (physchem): 7.76; obs–calc (log Po^in situ) ([3]; no efflux inhibition): −1.0 |
| CN1CC[C@]23c4c5ccc(O)c4O[C@H]2[C@@H](O)C=C[C@H]3[C@H]1C5 [Morphine] |  |  |  |  |  | Q (charge class) [2]: + |
| OCCN(CCO)c1nc(N2CCCCC2)c2nc(N(CCO)CCO)nc(N3CCCCC3)c2n1 [Dipyridamole] |  |  |  |  | 0 |  |
| CN[C@H]1CC[C@@H](c2ccc(Cl)c(Cl)c2)c2ccccc21 [Sertraline] |  |  |  |  | + | pKa (physchem): 9.2 |
| CN(C)CCCC1(c2ccc(F)cc2)OCc2cc(C#N)ccc21 (stereo not shown) [Citalopram] |  |  |  | 99 | + |  |
| CN(C)CCC=C1c2ccccc2CCc2ccccc21 [Amitriptyline] |  | −1.27 | −6.38 | 435 | + | obs–calc (log Po^in situ) ([3]; efflux inhibition mdr1a(−/−)): 0.1; obs–calc (log Po^in situ) ([3]; no efflux inhibition): −0.3 and −0.2 |
| Cn1c(=O)c2c(ncn2C)n(C)c1=O [Caffeine] |  |  |  | 1 | 0 |  |
| CC(C)(C)NC(=O)[C@@H]1C[C@@H]2CCCC[C@@H]2CN1C[C@@H](O)[C@H](Cc1ccccc1)NC(=O)[C@H](CC(N)=O)NC(=O)c1ccc2ccccc2n1 [Saquinavir] |  |  |  |  | 0 | log Po [4]: −3.82; Pm^7.4 [4]: 114; obs–calc (log Po^in situ) [3, 6]: −0.1; obs–calc (log Po^in situ) ([3]; efflux inhibition mdr1a(−/−)): 0.5 |
| COc1ccc(Cl)cc1C(=O)NCCc1ccc(S(=O)(=O)NC(=O)NC2CCCCC2)cc1 [Glibenclamide] |  |  |  |  | − | Pm^7.4 [4]: 15 |
| CC(=O)O[C@H]1C(=O)[C@@]2(C)[C@H]([C@H](OC(=O)c3ccccc3)[C@]3(O)C[C@H](OC(=O)[C@H](O)[C@@H](NC(=O)c4ccccc4)c4ccccc4)C(C)=C1C3(C)C)[C@]1(OC(C)=O)CO[C@@H]1C[C@@H]2O [Paclitaxel] |  |  |  |  | 0 | obs–calc (log Po^in situ) [3, 6]: −1.9 |
| Cn1cnc2c1c(=O)[nH]c(=O)n2C [Theobromine] | −4.45 | −8.00 | −6.94 | 0.01 | 0 | obs–calc (log Po^in situ) [3, 6]: 1.1 |
